# From PMC11229374, “Unlocking the potential of protein-derived peptides to target G-quadruplex DNA: from recognition to anticancer activity” (Nucleic Acids Research, 2024)
# *: point of attachment. FITC = O=C1OC2(c3ccc(O)cc3Oc3cc(O)ccc32)c2ccc(NC(=S)*)cc21; AEEA = NCCOCCOCC(=O)O
# B1: HT1 (structured_DNA)
# DNA: TTGGGTTAGGGTTAGGGTTAGGGA
# B2: HT2 (structured_DNA)
# DNA: TTAGGGTTAGGGTTAGGGTTAGGGTT
# B3: c-KIT1 (structured_DNA)
# DNA: AGGGAGGGCGCTGGGAGGAGGG
# B4: ds12 (dsDNA)
# DNA 1: CGCGAATTCGCG
# DNA 2: CGCGAATTCGCG
# B5: HER2 (structured_DNA)
# DNA: GGAGAAGGAGGAGGTGGAGGAGGAGGG
# B6: c-MYC (structured_DNA)
# DNA: TGAGGGTGGGTAGGGTGGGTAA
# B7: HRAS1 (structured_DNA)
# DNA: TCGGGTTGCGGGCGCAGGGCACGGGCG
# B8: LWDLN1 (structured_DNA)
# DNA: GGGTTTGGGTTTTGGGAGGG
# B9: BCL-2 (structured_DNA)
# DNA: GGGCGCGGGAGGAATTGGGCGGG
# B10: VEGFR-17T (structured_DNA)
# DNA: GGGTACCCGGGTGAGGTGCGGGGT
# Key:
# c-KIT2 G4 [1] = assay: CD melting, thermal stabilization of c-KIT2 G4; assay type: binding, human; conditions: for ΔT1/2 of c-KIT2 G4: CD melting at 264 nm, 2 mol equiv of peptide with respect to G4, 2 μM DNA, 5 mM KH2PO4/K2HPO4 pH 7.0, 20 mM KCl, average of three, T1/2 c-KIT2 alone 59.5°C; for ΔΔT1/2, change in c-KIT2 G4-stabilizing properties with respect to Myb^397–415: CD melting, 2 mol equiv peptide, difference to Myb^397–415
# Description: The buffer baseline was subtracted from each spectrum.
# U2OS cells = assay: Viability assay (crystal violet), U2OS; assay type: cell-based; conditions: for Impact on cancer cell viability, peptides in native form: unconjugated peptides
# Method: U2OS, HCT116 and MDA-MB-231 cells were purchased from the ATCC and grown in Dulbecco modified Eagle's medium (DMEM; EuroClone, Milan, Italy; ECM0728L) supplemented with 10% Fetal Bovine Serum (FBS, ThermoFisher Scientific/Gibco, Waltham, MA, USA; 10270-106), 2 mM L-glutamine and antibiotics in a humidified incubator at 37°C with 5% CO2 and atmospheric O2 concentration. Cell lines were authenticated and tested to be mycoplasma-free.
# U2OS, HCT116, and MDA-MB-231 cells were seeded in 24-well plates at a density of 1 × 10^4, 20 × 10^3 and 12 × 10^3 for each well, respectively. After 24 h, cells were treated with the indicated peptides and incubated at 37°C for additional 72 h. Upon treatment completion, cell medium was removed, the wells were washed twice in phosphate-buffered saline (PBS) and fixed with 4% formaldehyde for 15 min at room temperature (RT). After washing, 500 μl of crystal violet staining solution (Sigma-Aldrich, St. Louis, MO, USA) was added to each well and incubated for 30 min at RT. Finally, the plates were rinsed twice with water, air-dried and cell pellets were dissolved in 400 μl of a 10% aqueous solution of acetic acid. In total, 200 μl of each sample was transferred to a 96-well plate, and the optical density was measured at 570 nm (OD570) with an ELISA reader (Thermo Scientific, Waltham, MA, USA). The average absorbance in each condition was used to calculate the viability expressed as a percentage of treated vs untreated conditions (CTR).
# c-KIT2 G4 [2] = assay: Microscale thermophoresis (MST) binding to c-KIT2 G4; set-up: species or system human; conditions: 25°C, 20 nM FITC-labelled peptide, DNA serial dilution, 5 mM KH2PO4/K2HPO4 pH 7.0, 20 mM KCl, 0.1% Tween, 5% DMSO
# Method: MST experiments were conducted using a Monolith NT.115 instrument (NanoTemper Technologies, Munich, Germany) at 25°C with medium MST power settings. […] DNA samples were also diluted using the same buffer supplemented with 0.1% Tween. During MST experiments, the concentration of the labelled peptide was kept constant at 20 nM, while a serial dilution of the investigated DNA molecules (ranging from 10 or 20 μM) was prepared and mixed with the peptide solution in a 1:1 volume ratio. All the samples, with a final concentration of 5% DMSO, were loaded into standard capillaries (NanoTemper Technologies) for MST measurements. Data analysis was carried out using the MO.Affinity Analysis (v2.3) software provided with the instrument.
# c-KIT2 G4 [3] = assay: Isothermal titration calorimetry (ITC) with c-KIT2 G4; assay type: binding, human; conditions: ITC at 25°C, triplicate; for Ka: c-KIT2 G4 16–20 μM, peptide 280–400 μM, 5 mM KH2PO4/K2HPO4, 20 mM KCl, pH 7.0; for Kd: c-KIT2 G4, Kd = 1/Ka
# Method: ITC experiments were conducted at 25°C using a nano-ITC Low Volume calorimeter (TA instruments, Lindon, UT, USA). DNA and peptide solutions were prepared using the same batch of buffer (5 mM KH2PO4/K2HPO4 buffer containing 20 mM KCl, pH 7.0) to prevent differences in buffer composition and pH. Each titration consisted of 25 injections of a 2 μl peptide solution (280–400 μM) sequentially injected using a computer-controlled 50 μl syringe, into the calorimetric vessel (190 μl) containing the oligonucleotide (16–20 μM). A spacing of 300 s between each injection was applied to allow the system to reach the equilibrium. The heat generated by peptide dilution was assessed in a control experiment by injecting the peptide solution into the buffer (Supplementary Figure S30). All measurements were performed in triplicate. Subsequently, the interaction heat for each injection was calculated considering the correction for the heat of peptide dilution. The corrected heat values were plotted as a function of the molar ratio to provide binding isotherms. The isotherms were fitted with a multiple-sites binding model using the NanoAnalyze software (TA instruments) provided with the instrument. This analysis provided the equilibrium binding constant (Ka), binding enthalpy (ΔH°), and stoichiometry of interaction (n). The equilibrium dissociation constant (Kd), Gibbs free-energy change and entropy change were determined using the following relationships: Kd = 1/Ka, ΔG° = -RT ln Ka (R = 8.314 J mol^−1 K^−1, T = 298.15 K), and TΔS° = ΔH° – ΔG°.
# FITC-Myb397-415 [4] = molecular target: T1, FITC-Myb397-415 (UniProt P11938); assay: MST; conditions: 2'-F-ANA-guanosine at bold G; positions lost in the text; 5 mM KH2PO4/K2HPO4 pH 7.0, 20 mM KCl (LiCl for c-MYC stock), 25 C; MST with 0.1% Tween and 5% DMSO, 20 nM FITC-peptide
# T1 sequence: NHTGNSIRHRFRVYLSKRL
# FITC-Myb397-415 [5] = molecular target: T2, FITC-Myb397-415 (UniProt P11938 397-415); assay: microscale thermophoresis; 5 mM KH2PO4/K2HPO4, 20 mM KCl (c-MYC stock annealed in LiCl), pH 7.0; MST 25 C with 0.1% Tween, 5% DMSO, 20 nM labelled peptide, DNA titrated (stocks from 10 or 20 uM, mixed 1:1); ITC 25 C; conditions: tags: N-terminal FITC-O2Oc, C-terminal NH2
# T2 chain: {FITC-AEEA}-NHTGNSIRHRFRVYLSKRL-NH2
# FITC-Myb397-415 [6] = molecular target: T2, FITC-Myb397-415; assay: MST; 20 mM K+; 5 mM KH2PO4/K2HPO4 pH 7.0, 20 mM KCl (LiCl for c-MYC stock), 25 C; MST with 0.1% Tween and 5% DMSO, 20 nM FITC-peptide; conditions: hybrid G4
# Myb397-415 = molecular target: T3, Myb397-415 (UniProt P11938 397-415); assay: isothermal titration calorimetry; 5 mM KH2PO4/K2HPO4, 20 mM KCl (c-MYC stock annealed in LiCl), pH 7.0; MST 25 C with 0.1% Tween, 5% DMSO, 20 nM labelled peptide, DNA titrated (stocks from 10 or 20 uM, mixed 1:1); ITC 25 C; conditions: tags: N-acetyl; C-terminal NH2; chain copies: 3; parallel G4
# T3 chain: NHTGNSIRHRFRVYLSKRL
molecule,measurement,setting,value
AHTGNSIRHRFRVYLSKRL [Myb^A397],ΔT1/2 of c-KIT2 G4,c-KIT2 G4 [1],18.0 (±0.2) °C
Ac-NHTANSIRHRFRVYLSKRL-NH2 [Myb^A400],"Impact on cancer cell viability, peptides in native form",U2OS cells; 72 h treatment,unable to significantly impact cancer cells viability
same,ΔT1/2 of c-KIT2 G4,c-KIT2 G4 [1],21.1 (±0.4) °C
same,"ΔΔT1/2, change in c-KIT2 G4-stabilizing properties with respect to Myb^397–415",c-KIT2 G4 [1],3.8 °C
same,Kd,c-KIT2 G4 [2],~0.17 µM
same,Ka,c-KIT2 G4 [3],7.3 (±1.3) ×10^6 M^−1
same,Kd,c-KIT2 G4 [3],0.137 µM
Ac-NHTGNSIRHRFRVYLAKRL-NH2 [Myb^A412],"Impact on cancer cell viability, peptides in native form",U2OS cells; 72 h treatment,unable to significantly impact cancer cells viability
same,ΔT1/2 of c-KIT2 G4,c-KIT2 G4 [1],23.3 (±0.2) °C
same,"ΔΔT1/2, change in c-KIT2 G4-stabilizing properties with respect to Myb^397–415",c-KIT2 G4 [1],6.0 °C
same,Kd,c-KIT2 G4 [2],~0.13 µM
same,Ka,c-KIT2 G4 [3],5.3 (±0.8) ×10^6 M^−1
same,Kd,c-KIT2 G4 [3],0.187 µM
NATGNSIRHRFRVYLSKRL [Myb^A398],ΔT1/2 of c-KIT2 G4,c-KIT2 G4 [1],19.8 (±0.2) °C
NHAGNSIRHRFRVYLSKRL [Myb^A399],ΔT1/2 of c-KIT2 G4,c-KIT2 G4 [1],18.5 (±0.2) °C
NHTGASIRHRFRVYLSKRL [Myb^A401],ΔT1/2 of c-KIT2 G4,c-KIT2 G4 [1],19.7 (±0.2) °C
NHTGNAIRHRFRVYLSKRL [Myb^A402],ΔT1/2 of c-KIT2 G4,c-KIT2 G4 [1],18.5 (±0.2) °C
NHTGNSARHRFRVYLSKRL [Myb^A403],ΔT1/2 of c-KIT2 G4,c-KIT2 G4 [1],17.7 (±0.2) °C
NHTGNSIAHRFRVYLSKRL [Myb^A404],ΔT1/2 of c-KIT2 G4,c-KIT2 G4 [1],16.6 (±0.2) °C
NHTGNSIRARFRVYLSKRL [Myb^A405],ΔT1/2 of c-KIT2 G4,c-KIT2 G4 [1],16.0 (±0.2) °C
NHTGNSIRHAFRVYLSKRL [Myb^A406],ΔT1/2 of c-KIT2 G4,c-KIT2 G4 [1],12.1 (±0.3) °C
NHTGNSIRHRARVYLSKRL [Myb^A407],ΔT1/2 of c-KIT2 G4,c-KIT2 G4 [1],17.8 (±0.2) °C
NHTGNSIRHRFAVYLSKRL [Myb^A408],ΔT1/2 of c-KIT2 G4,c-KIT2 G4 [1],14.0 (±0.6) °C
NHTGNSIRHRFRAYLSKRL [Myb^A409],ΔT1/2 of c-KIT2 G4,c-KIT2 G4 [1],14.7 (±0.6) °C
NHTGNSIRHRFRVALSKRL [Myb^A410],ΔT1/2 of c-KIT2 G4,c-KIT2 G4 [1],13.6 (±0.2) °C
NHTGNSIRHRFRVYASKRL [Myb^A411],ΔT1/2 of c-KIT2 G4,c-KIT2 G4 [1],19.5 (±0.4) °C
NHTGNSIRHRFRVYLSARL [Myb^A413],ΔT1/2 of c-KIT2 G4,c-KIT2 G4 [1],10.7 (±0.6) °C
NHTGNSIRHRFRVYLSKAL [Myb^A414],ΔT1/2 of c-KIT2 G4,c-KIT2 G4 [1],10.7 (±0.6) °C
NHTGNSIRHRFRVYLSKRA [Myb^A415],ΔT1/2 of c-KIT2 G4,c-KIT2 G4 [1],17.8 (±0.5) °C
"RRRRRRRW-GG-NHTGNSIRHRFRVYLAKRL [R7W-Myb^A412, Myb^A412 N-terminally conjugated to the cell-penetrating peptide R7W via a glycine–glycine spacer]",Inhibition of tumour cell growth compared with the other R7W-conjugated peptides,"U2OS cells; 72 h, at the 5 μM concentration",slightly more effective than the others
same,"Inhibition of tumour cell growth, R7W-conjugated peptides",U2OS cells; 72 h treatment,essentially to the same extent as R7W-Myb^397–415
RRWWRRWRR-GG-NHTGNSIRHRFRVYLSKRL [R6W3-Myb^397–415],IC50,"U2OS cells; 72 h treatment, read-out: IC50 (concentration of drug capable of killing 50% of cells)",~10 µM
TAGGGTTAGGGTTAGGGTTAGGG [HT-FANA],Kd,FITC-Myb397-415 [4],0.14 µM
B1,Kd,FITC-Myb397-415 [5]; hybrid G4,0.9 ± 0.14 µM
same,Kd,FITC-Myb397-415 [6],0.9 ± 0.14 µM
B2,Kd,FITC-Myb397-415 [5]; hybrid G4,1.18 ± 0.09 µM
same,Kd,FITC-Myb397-415 [6],1.18 ± 0.09 µM
B3,Kd,FITC-Myb397-415 [5]; parallel G4,0.34 ± 0.044 µM
B4,binding result,"FITC-Myb397-415 [5]; blunt, self-complementary",no binding
B5,Kd,FITC-Myb397-415 [5]; parallel G4,0.13 ± 0.02 µM
same,Kd,Myb397-415,0.1 ± 0.01 µM
B6,Kd,FITC-Myb397-415 [5]; parallel G4,0.43 ± 0.1 µM
B7,binding result,FITC-Myb397-415 [5]; antiparallel G4,no binding
B8,binding result,FITC-Myb397-415 [5]; antiparallel G4,no binding
B9,Kd,FITC-Myb397-415 [5]; hybrid G4,0.28 ± 0.042 µM
B10,binding result,FITC-Myb397-415 [5]; hybrid (mixed parallel/antiparallel) G4,no binding
